Tests used:
[1] = Cell Titer-fluor cell activity assay in HCV-1b replicon cells (CC50); type: cell-based
How it was run: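 CC50 derived by nonlinear fitting of inhibition % from Cell Titer-fluor signal (405/515 nm, 30 min). Cells: genotype 1b Con1 replicon carrying E1202G, T1280I, K1846T, seeded 8000/well with compound for 3 days, 37 °C, 0.5% DMSO; 6 points, 5-fold dilution, top 100, 10 or 1 nM, duplicates.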

[2] = tested on: HCV genotype 1b (HCV-1b) replicon cells; assay: HCV genotype 1b replicon luciferase assay (EC50); type: cell-based, hepatitis C virus genotype 1b (Con1 clone); conditions: Hepatitis C virus, 72 h, 3 days, luciferase (Bright-Glo)
How it was run: (§1)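 Replicon cells, 8000/well, 3 d, 37 °C; 6-pt 5-fold dilution from 100, 10 or 1 nM, 0.5% DMSO, duplicates; Bright-Glo luminescence → EC50 (nonlinear fit). 1a = H77 K1691R/K2040R/S2204I; 1b = Con1 E1202G/T1280I/K1846T.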

[3] = tested on: HCV genotype 1a (HCV-1a) replicon cells; assay: HCV genotype 1a replicon luciferase assay (EC50); type: cell-based, hepatitis C virus genotype 1a (H77 clone); conditions: Hepatitis C virus, 72 h, 3 days, luciferase (Bright-Glo)
How it was run: as §1

in vitro = type: cell-based; conditions: HCV 1a replicon cells, 3 days, Cell Titer-fluor
Description: The EC50 and CC50 values of anti-HCV compounds were determined by HCV genotype 1a (HCV-1a) and 1B (HCV-1b) stable transfer replication (replicon) cells. The source of genotype 1a replicon is H77 clones containing K1691R, K2040R and S2204I adaptive mutations. The source of genotype 1b replicon is Con1 clones containing E1202G, T1280I and K1846T adaptive mutations.
HCV Replicon Cell Lines: HCV-1a and HCV-1b Cells
The compound powder was dissolved in 100% DMSO. Then the compound was diluted 5 times with 6 points, and added into the cell plate with Echo liquid handler. Ensure the final concentration of DMSO was 0.5%. Each compound was tested in double holes. Maximum initial concentration was 100, 10 or 1 nM, 5 times dilution, 6 points.
b) Cell Culture (HCV-1a or HCV-1b Replicon Cell):
1) absorbing the culture supernatant of the cell culture and washing the cells with 10 mL PBS.
2) adding preheated pancreatin to the washed cell culture flasks, rotating culture bottle to make the bottom of the culture bottle uniformly covered by pancreatin, then placed into 37° C., 5% CO2 incubator to digest.
3) suspending cells in each T150 culture flask with 10-15 mL culture medium, absorbing 0.1 mL liquid and diluting 2 times by trypan blue solution as counted.
4) diluting cells to 8×10^4/mL with the culture medium, adding the diluted cells into the compound-containing 96-well plate (Greiner, Cat.#655090) (100 μL/well, 8000 cells/well) with automatic liquid separator (Thermo Scientific). Then place into a 37° C., 5% CO2 incubator for 3 days. Cell control well: no compound, only containing 0.5% DMSO.
5) adding chemiluminescent substrate Cell Titer-fluor to the cell well, after incubation for 30 minutes, detecting the signal by chemiluminescence detection system Envison (Ex at 405 nm and read at 515 nm). The effect of the compounds on the activity of HCV replicon cells was analyzed according to the luminescence data, which was used to calculate the CC50 values.
The EC50 or CC50 values were obtained by nonlinear fitting analysis on inhibition percentage (inh %) data with GraphPad Prism software.

SMILES	CC50 at 3 days [1]	EC50 [2]	EC50 [3]	CC50 (in vitro)
COC(=O)NC(C(=O)N1CCCC1c1ccc(-c2ccc(-c3ccc(-c4[nH]c(C5CCCN5C(=O)[C@H](NC(=O)OC)C(C)C)c5c4CCC5)cc3)cc2)[nH]1)C1CCOCC1 (some centres unmarked) [AG_038]	> 10 nM	0.101 to 1 nM	10 to 100 nM	> 100 nM
COC(=O)NC(C(=O)N1CCC[C@H]1c1ncc(-c2ccc(-c3ccc(-c4[nH]c(C5CCCN5C(=O)[C@@H](NC(=O)OC)C(C)C)c5c4CCCC5)cc3)cc2)[nH]1)C1CCOC(C)C1 (some centres unmarked) [AG_047]	> 100 nM	0.101 to 1 nM	10 to 100 nM	> 100 nM
COC(=O)NC(C(=O)N1CCCC1c1[nH]c(-c2ccc(-c3ccc(-c4cnc([C@@H]5CCCN5C(=O)C(NC(=O)OC)C5CCOCC5)[nH]4)cc3)cc2)c2c1CCCC2)C1CCOCC1 (some centres unmarked) [AG_045]	> 100 nM	0.101 to 1 nM	10 to 100 nM	> 100 nM
COC(=O)NC(C(=O)N1CCCC1c1[nH]c(-c2ccc(-c3ccc(-c4cnc([C@@H]5CCCN5C(=O)[C@@H](NC(=O)OC)C(C)C)[nH]4)cc3)cc2)c2c1CCC2)C1CCOCC1 (some centres unmarked) [AG_036]	> 10 nM	0.001 to 0.1 nM	1 to 10 nM	> 100 nM
COC(=O)N[C@H](C(=O)N1CCCC1c1ccc(-c2ccc(-c3ccc(-c4cnc([C@@H]5CCCN5C(=O)[C@@H](NC(=O)OC)C(C)C)[nH]4)cc3)cc2)[nH]1)C(C)C (some centres unmarked) [AG_001]	> 1 nM	0.001 to 0.1 nM	1 to 10 nM	> 10 nM
COC(=O)NC(C(=O)N1CCC[C@H]1c1ncc(-c2ccc(-c3ccc(-c4[nH]c(C5CCCN5C(=O)[C@@H](NC(=O)OC)C(C)C)c5c4CCCC5)cc3)cc2)[nH]1)C1CCOC1 (some centres unmarked) [AG_046]	> 100 nM	0.101 to 1 nM	10 to 100 nM	> 100 nM
COC(=O)N[C@H](C(=O)N1CCCC1c1[nH]c(-c2ccc(-c3ccc(-c4cnc([C@@H]5CCCN5C(=O)[C@@H](NC(=O)OC)C(C)C)[nH]4)cc3)cc2)c2c1CCCC2)C(C)C (some centres unmarked) [AG_015]	> 10 nM	0.001 to 0.1 nM	10 to 100 nM	> 100 nM
COC(=O)N[C@H](C(=O)N1CCC[C@H]1c1ncc(-c2ccc(-c3ccc(-c4ccc(C5CCCN5C(=O)[C@@H](NC(=O)OC)C(C)C)[nH]4)cc3)cc2)[nH]1)c1ccccc1 (some centres unmarked) [AG_052]	> 100 nM	0.001 to 0.1 nM	1 to 10 nM	> 100 nM
COC(=O)N[C@H](C(=O)N1CCC[C@H]1c1ncc(-c2ccc(-c3ccc(-c4cnc([C@@H]5C6CCC(C6)C5C(=O)NCc5cccnc5)[nH]4)cc3)nc2)[nH]1)[C@@H](C)OC (some centres unmarked) [AA_242_B]	> 1 nM	0.101 to 1 nM	10 to 100 nM	–
COC(=O)N[C@H](C(=O)N1CCC[C@H]1c1ncc(-c2ccc(-c3ccc(-c4cnc([C@@H]5[C@H]6CC[C@H](C6)[C@H]5C(=O)NN(C(C)=O)C(C)C)[nH]4)cc3)cc2)[nH]1)C(C)C [AA_300_ENDOA2]	> 1 nM	0.101 to 1 nM	10 to 100 nM	–
COC(=O)N[C@H](C(=O)N1CCC[C@H]1c1ncc(-c2ccc(-c3ccc(-c4cnc(C5C6CCC(C6)[C@@H]5C(=O)NCc5cnccn5)[nH]4)cc3)cc2)[nH]1)[C@@H](C)OC (some centres unmarked) [AA_268_A]	> 1 nM	0.001 to 0.1 nM	0.101 to 1 nM	–
COC(=O)N[C@H](C(=O)N1CCC[C@H]1c1ncc(-c2ccc(-c3ccc(-c4cnc([C@@H]5[C@H]6CC[C@H](C6)[C@H]5C(=O)NCc5cccnc5)[nH]4)cc3)cc2)[nH]1)C(C)C [AA_162_ENDOA2]	> 1 nM	0.001 to 0.1 nM	0.101 to 1 nM	–
COC(=O)N[C@H](C(=O)N1CCC[C@H]1c1ncc(-c2ccc(-c3ccc(-c4[nH]c(C5CCCN5C(=O)[C@@H]5COC(=O)N5)c5c4CCC5)cc3)cc2)[nH]1)C(C)C (some centres unmarked) [AG_084_A]	> 1 nM	0.101 to 1 nM	1 to 10 nM	–
COC(=O)N[C@H](C(=O)N1CCC[C@H]1c1ncc(-c2ccc(-c3ccc(-c4cnc([C@H]5C6CCC(C6)[C@@H]5C(=O)NCCc5ccncc5)[nH]4)cc3)cc2)[nH]1)C(C)C (some centres unmarked) [AA_209_A]	> 1 nM	0.001 to 0.1 nM	10 to 100 nM	–
COC(=O)N[C@H](C(=O)N1CCC[C@H]1c1ncc(-c2ccc(-c3ccc(-c4cnc(C5C6CCC(C6)[C@H]5C(=O)NCc5cccnc5)[nH]4)cc3)cc2)[nH]1)C(C)C (some centres unmarked) [AA_162_A]	> 1 nM	0.001 to 0.1 nM	1 to 10 nM	–
COC(=O)N[C@H](C(=O)N1CCC[C@@H]1c1[nH]c(-c2ccc(-c3ccc(-c4cnc([C@@H]5CCCN5C(=O)[C@@H](NC(=O)OC)C(C)C)[nH]4)cc3)cc2)c2c1CCCO2)C(C)C [AG_114_B]	> 1 nM	0.101 to 1 nM	10 to 100 nM	–
COC(=O)N[C@H](C(=O)N1CCC[C@H]1c1ncc(-c2ccc(-c3ccc(-c4cnc([C@@H]5C6CCC(C6)[C@H]5C(=O)NCc5cccnc5)[nH]4)cc3)cc2C)[nH]1)C(C)C (some centres unmarked) [AA_211_B]	> 1 nM	0.001 to 0.1 nM	1 to 10 nM	–
COC(=O)N[C@H](C(=O)N1CCC[C@H]1c1ncc(-c2ccc(-c3ccc(-c4cnc([C@@H]5[C@H]6CC[C@H](C6)[C@H]5C(=O)NC5(c6ccccc6)CC5)[nH]4)cc3)cc2)[nH]1)C(C)C [AA_273_ENDOA2]	> 1 nM	0.001 to 0.1 nM	1 to 10 nM	–
COC(=O)N[C@H](C(=O)N1CCC[C@H]1c1ncc(-c2ccc(-c3ccc(-c4cnc(C5C6CCC(C6)[C@H]5C(=O)NNc5nccnc5Cl)[nH]4)cc3)cc2)[nH]1)[C@@H](C)OC (some centres unmarked) [AA_250_B]	> 1 nM	1 to 10 nM	10 to 100 nM	–
O=C(NCc1cccnc1)[C@H]1C2CCC(C2)C1c1ncc(-c2ccc(-c3ccc(-c4cnc([C@@H]5C6CCC(C6)[C@H]5C(=O)NCc5cccnc5)[nH]4)cc3)cc2)[nH]1 (some centres unmarked) [AA_180]	> 10 nM	1 to 10 nM	10 to 100 nM	–
COC(=O)N[C@H](C(=O)N1CCC[C@H]1c1ncc(-c2ccc(-c3ccc(-c4cnc([C@@H]5C6CCC(C6)[C@H]5C(=O)NCc5ccc(C(C)C)nc5)[nH]4)cc3)cc2)[nH]1)C(C)C (some centres unmarked) [AA_236_B]	> 1 nM	0.101 to 1 nM	10 to 100 nM	–
COC(=O)N[C@H](C(=O)N1CCC[C@H]1c1ncc(-c2ccc(-c3ccc(-c4cnc(C5C6CCC(C6)[C@@H]5C(=O)NCc5cccnc5OC)[nH]4)cc3)cc2)[nH]1)[C@@H](C)OC (some centres unmarked) [AA_257_A]	> 1 nM	0.101 to 1 nM	1 to 10 nM	–
COC(=O)N[C@H](C(=O)N1CCC[C@H]1c1ncc(-c2ccc(-c3ccc(-c4cnc(C5C6CCC(C6)[C@H]5C(=O)NCc5ccc(C(C)C)nc5)[nH]4)cc3)cc2)[nH]1)[C@@H](C)OC (some centres unmarked) [AA_265_B]	> 1 nM	0.101 to 1 nM	10 to 100 nM	–
COC[C@H](NC(=O)OC)C(=O)N1CCC[C@H]1c1ccc(-c2ccc(-c3ccc(-c4cnc([C@@H]5CCCN5C(=O)[C@@H](NC(=O)OC)[C@@H](C)O)[nH]4)cc3)cc2)[nH]1 [AG_108]	> 1 nM	0.001 to 0.1 nM	0.101 to 1 nM	–
COC[C@H](NC(=O)OC)C(=O)N1CCC[C@H]1c1ccc(-c2ccc(-c3ccc(-c4cnc([C@@H]5CCCN5C(=O)[C@H](COC)NC(=O)OC)[nH]4)cc3)cc2)[nH]1 [AG_109]	> 1 nM	0.001 to 0.1 nM	0.101 to 1 nM	–
COC[C@H](NC(=O)OC)C(=O)N1CCC[C@H]1c1ncc(-c2ccc(-c3ccc(-c4[nH]c([C@@H]5CCCN5C(=O)[C@@H](NC(=O)OC)C(C)C)c5c4CCC5)cc3)cc2)[nH]1 [AG_091]	> 1 nM	0.001 to 0.1 nM	1 to 10 nM	–
COC(=O)N[C@H](C(=O)N1CCC[C@H]1c1ncc(-c2ccc(-c3ccc(-c4cnc(C5C6CCC(C6)[C@H]5C(=O)NCc5cccnc5O)[nH]4)cc3)cc2)[nH]1)[C@@H](C)OC (some centres unmarked) [AA_263_C]	> 1 nM	0.101 to 1 nM	10 to 100 nM	–
COC(=O)N[C@H](C(=O)N1CCC[C@H]1c1cnc(-c2ccc(-c3ccc(-c4ncc(C5C6CCC(C6)[C@@H]5C(=O)N(NC(=O)OC)C(C)C)[nH]4)cc3)cc2C)[nH]1)C(C)C (some centres unmarked) [AA_169_B]	> 5 nM	0.001 to 0.1 nM	10 to 100 nM	–

From US10160771B2, “Hepatitis C virus inhibitors and uses thereof in preparation of drugs” (priority 2014, dated 2018)
